Experimental data: US20110233810A1, “ANTIMICROBIAL PLASTIC COMPOSITIONS AND METHODS FOR PREPARING SAME” (W. M. Barr & Company, priority 2010, published 2011)

Key:
[1] = heavy gauge vinyl pool liner and film of vinyl baby pants; cited from earlier work
Rat = settings: cited from earlier work
Rabbit = settings: cited from earlier work
[2] = monomeric form; cited from earlier work
Staphylococcus aureus = assay: Zone of Inhibition testing AATCC-147 (modified), pellets in agar; assay type: cell-based; settings: text summary of Table VIII
Experimental: A set of AETs run measured Zone of Inhibition, ZOI (AATCC-147) and pellets from runs 1 to 5 were used. Pellets were placed in an agar growth medium that had been streaked with parallel lines of Staphylococcus aureus and incubated for 24 hours at 37° C. The final plates were photographed and measured for length of ZOI in mm.

c1ccc2c(c1)Oc1ccccc1[As]2O[As]1c2ccccc2Oc2ccccc21 [OBPA, 10,10′-oxybisphenoxarsine]
Leaching from plastics [1]: leaches very slowly | Oral LD50 (Rat): 37 mg/kg | Dermal LD50 (Rabbit): 121 mg/kg

CCCCCCCCCCCCCCCCCC[N+](C)(C)CCC[Si](OC)(OC)OC.[Cl-] [Ref #1, 3-(trimethoxysilyl) propyl-N-octadecyl-N,N-dimethyl ammonium chloride]
Vapor pressure [2]: 5.8 × 10^−14 mmHg

Oc1cc(Cl)ccc1Oc1ccc(Cl)cc1Cl [TRICLOSAN, 2,4,4′-trichloro-2′-hydroxy diphenol ether]
ZOI (in words) (Staphylococcus aureus): significant ZOI
